Data on two compounds can be found in patent US6391880B1, “Heterocyclic compounds useful as oxido-squalene cyclase inhibitors” (Zeneca Limited, priority 1997, dated 2002).

Series [1] relates to rat cholesterol biosynthesis. Briefly: In vivo test to measure inhibition of oxido-squalene cyclase / cholesterol biosynthesis in the rat. Conditions: dosed at 2 mg/kg, oral. The procedure: (b) In Vivo Test to Measure Inhibition of Oxido-Squalene Cyclase
The ability of a compound to inhibit oxido-squalene cyclase and/or inhibit cholesterol biosynthesis may be assessed by a routine laboratory procedure carried out in the rat. The test involves administration of the compound to rats on a reversed lighting regimen. Female rats (35-55 g) are housed in reverse lighting conditions (red light from 0200 h-1400 h) for a period of about 2 weeks prior to test. Animals are allowed free access to chow and drinking water throughout this period. At test, animals should weigh 100-140 g. The rats are dosed orally with the compound (typically 10-50 mg/kg) formulated in apolyethylene glycol/hydroxypropylmethyl cellulose mix. After 1 hour the rats are given […] sodium mevalonate (15 μCi/kg) intraperitoneally. Two hours after administration of the compound the rats are terminated and a piece of liver removed and weighed. The tissue is saponified at 80° C. for 2 hours in an ethanolic/potassium hydroxide solution (80% w/v aqueous KOH diluted 1:10 with ethanol). Water (2 ml) is added and the mixture extracted with iso-hexane (2×5 ml). The organic extracts are combined, evaporated to dryness under a stream of nitrogen and the residue is dissolved in a mixture of acetonitrile/iso-propanol (300 μl). […] The radio-label content of each fraction is assessed using a radio chemical flow detector. […]

Series [2] has as its target T1, rat microsomal oxido-squalene cyclase (Rattus norvegicus, UniProt P48450).
T1 construct: Microsomes are prepared from rat liver according to methods known in the art; from tissue; host or cells: rat liver microsomes
T1 sequence (P48450 1-733): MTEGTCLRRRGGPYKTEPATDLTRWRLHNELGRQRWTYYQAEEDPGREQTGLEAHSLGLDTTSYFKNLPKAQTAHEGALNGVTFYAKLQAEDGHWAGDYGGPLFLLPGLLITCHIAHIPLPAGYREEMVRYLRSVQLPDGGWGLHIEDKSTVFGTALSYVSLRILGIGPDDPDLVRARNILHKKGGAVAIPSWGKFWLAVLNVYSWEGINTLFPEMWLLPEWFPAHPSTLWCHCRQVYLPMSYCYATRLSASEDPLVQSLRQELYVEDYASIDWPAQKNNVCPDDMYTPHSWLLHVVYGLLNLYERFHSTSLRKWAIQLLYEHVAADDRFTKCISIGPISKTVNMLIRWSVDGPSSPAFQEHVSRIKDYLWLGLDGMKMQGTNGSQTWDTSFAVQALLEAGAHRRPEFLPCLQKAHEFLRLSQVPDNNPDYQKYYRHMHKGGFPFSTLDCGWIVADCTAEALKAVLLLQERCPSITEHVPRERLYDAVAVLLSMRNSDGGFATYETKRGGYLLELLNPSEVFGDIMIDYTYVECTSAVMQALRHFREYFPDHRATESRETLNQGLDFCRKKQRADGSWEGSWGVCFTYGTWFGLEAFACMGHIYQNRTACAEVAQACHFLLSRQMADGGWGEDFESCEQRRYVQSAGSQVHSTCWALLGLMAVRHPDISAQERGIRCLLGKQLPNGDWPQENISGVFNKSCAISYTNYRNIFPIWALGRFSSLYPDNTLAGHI
Briefly: In vitro test to measure inhibition of oxido-squalene cyclase. The format is biochemical. Conditions: at a concentration of 0.1 μM; rat liver microsomes. On the procedure:
(a) In Vitro Test to Measure Inhibition of Oxido-Squalene Cyclase
This test measures the inhibition of microsomal oxido-squalene cyclase in vitro by compounds at set concentrations in the incubation medium.
Microsomes are prepared from rat liver according to methods known in the art, for example, the method described in published European Patent Application No 324,421 and stored in liquid nitrogen prior to assay. Assay vials are kept at 37° C. throughout the incubation. The microsomes typically contain 15-20 mg of protein per ml of microsomes. For assay, 1 ml of microsomes are diluted by the addition of 722 μl of 50 mM phosphate buffer pH 7.4.
Phosphate buffered Tween 80 (polyoxyethylene sorbitan […]) is prepared by adding 0.1 g Tween 80 to 100 ml of 50 mM phosphate buffer.
A stock solution of oxido-squalene is made up as a solution in ethanol (0.65 mg. ml.^−1). 18 μl of radio-labelled oxido-squalene (1 μCi.ml^−1) is evaporated to dryness under a stream of nitrogen and redissolved in 1 ml of ethanol and 1 ml of the stock solution of oxido-squalene is added.
The test compound is dissolved in dimethyl sulphoxide to give a 10^−4M stock solution. […]
The samples are then placed in a water bath at 80° C. for 2 hours to saponify. […] Reaction rate is measured as the conversion of oxido-squalene to lanosterol, and the effects of test compounds are expressed as an inhibition of this process.
Background: Liver microsomes are vesicles of endoplasmic reticulum, rich in cytochrome P450 enzymes.

For orientation: melting point means the temperature, or range, at which the solid turns liquid. The compound `O=C(C1CCN(S(=O)(=O)c2ccc(Br)cc2)CC1)N1CCC(c2ccncc2)CC1` yielded a melting point of 154 to 155 °C.

On to `O=C(N1CCC(c2ccncc2)CC1)N1CCN(S(=O)(=O)c2ccc(Br)cc2)CC1` [Example 2], for which the “inhibition of rat cholesterol biosynthesis” value in series [1] is reported as “about 85%”. The “inhibition of rat microsomal oxido-squalene cyclase” value in series [2] is “about 94%”.
